{"source": "patent US20080039383A1", "about": "“Methods and compositions for inhibiting ER-stress induced cholesterol/triglyceride accumulation” (HAMILTON CIVIC HOSPITAL RESEARCH DEVELOPMENT INC., priority 1999, published 2008)", "key": {"[1]": {"system": "SREBP, HMG-CoA reductase, IPP isomerase (IPPI) and FPP synthase mRNA", "assay": "Northern blot analysis of cholesterol/triglyceride biosynthesis and uptake gene mRNA in cultured human cells", "format": "cell-based", "settings": "for expression of cholesterol biosynthetic enzymes (Northern analysis): HUVEC and HepG2 cells; for steady-state mRNA levels of IPPI / steady-state mRNA levels of IPPI (IPP isomerase): 4 hours; for steady-state mRNA levels of IPPI: 5 mM amino acid or 2 mM DTT; for steady-state mRNA levels of IPPI (IPP isomerase): homocysteine 5 mM, DTT, β-mercaptoethanol 5 mM, tunicamycin 10 μg/ml, A23187 10 μM; for IPPI mRNA levels: 0-18 hours", "protocol": "(§1) Cell culture and treatment conditions. Primary human umbilical vein endothelial cells (HUVEC) were isolated by collagenase treatment of human umbilical veins (Jaffe, E. A, 1973) and cultured in EC medium (M199 medium, 20 μg/ml endothelial cell growth factor, 90 μg/ml porcine intestinal heparin, 100 μg/ml penicillin and 100 μg/ml streptomycin) containing 20% fetal bovine serum (Hyclone; Logan, Utah) in a humidified incubator at 37° C. with 5% CO2. Cells from passages 2-4 were used in these studies. Human aortic smooth muscle cells (HASMC) were purchased from Cascade Biologicals (Portland, Oreg.) and cultured in M231 media (Cascade Biologicals) containing smooth muscle cell growth supplement (Cascade Biologicals). The human hepatocarcinoma cell line, HepG2, was obtained from the American Type Culture Collection (ATCC; Rockville, Md.) and cultured in A-DMEM containing 10% fetal bovine serum. DL-homocysteine, L-methionine, DL-cysteine, glycine, DL-dithiothreitol ([…]), tunicamycin, A23187 and β-mercaptoethanol were purchased from Sigma (St. Louis, Mo.). These compounds were prepared fresh in culture medium, sterilized by filtration and added to the cell cultures.\n(§2) Preparation of Total RNA. […] ."}, "[2]": {"system": "GRP78/BiP and GADD153 mRNA", "assay": "Northern blot analysis of ER stress response genes in HepG2 cells", "format": "cell-based, human", "settings": "4 h, 5 mM amino acids, 2.5 mM DTT, 10 μg/ml tunicamycin", "protocol": "as §1, §2"}, "[3]": {"system": "HepG2 cells", "assay": "Intracellular total cholesterol in HepG2 cells", "format": "cell-based, human", "settings": "HepG2, 0-5 mM, 24-48 h", "protocol": "(§3) Lipids are extracted with hexane:isopropanol (3:2), dried and resuspended in hexane. Colorimetric cholesterol assays is carried out using the Sigma Diagnostics Cholesterol Reagent (Sigma) to determine total cholesterol levels. Total plasma cholesterol are measured using the same assay but without the lipid extraction step.\nas §1\n(§4) Total cholesterol and triglyceride levels."}, "[4]": {"system": "HASMC", "assay": "Intracellular total cholesterol in HASMC", "format": "cell-based, human", "settings": "0-5 mM, 24-48 h", "protocol": "as §3, §1, §4"}, "[5]": {"system": "cultured cells", "settings": "cited from earlier work; for overall cell number or viability: extracellular concentrations up to 5 mM"}, "[6]": {"system": "GRP78/BiP and GRP94", "assay": "Immunoblot with anti-KDEL mAb in HepG2 cells", "format": "cell-based, human", "settings": "HepG2, 5 mM homocysteine, 8, 18 and 36 h", "protocol": "as §1\n(§5) Immunoblot analysis. The anti-KDEL mAb (SPA-827), which recognizes both GRP78/BiP and GRP94, was purchased from StressGen Biotechnologies (Victoria, BC). […]"}, "[7]": {"system": "SREBP-1", "assay": "Immunoblot of SREBP-1 precursor and mature forms in HepG2 cells", "format": "cell-based, human", "settings": "5 mM homocysteine", "protocol": "as §1, §5"}, "[8]": {"system": "SREBP-2", "assay": "Immunoblot of SREBP-2 forms in HepG2 cells", "format": "cell-based, human", "settings": "HepG2 cells (data not shown)", "protocol": "as §1, §5"}, "[9]": {"system": "HUVEC", "assay": "Intracellular total cholesterol in HUVEC", "format": "cell-based, human", "settings": "0-5 mM, 24-48 h", "protocol": "as §3\nas §1, with “These compounds were prepared fresh in culture medium, sterilized by filtration and added to the cell cultures.” left out"}, "[10]": {"system": "HUVEC", "assay": "BODIPY FL LDL / AcLDL binding and uptake in HUVEC", "format": "cell-based, human", "protocol": "as §1\n(§6) Uptake of BODIPY FL LDL and image analysis. […] Images were subsequently captured and analyzed using Northern Exposure image analysis/archival software (Mississauga, ON)."}, "[11]": {"system": "HASMC", "assay": "BODIPY FL LDL binding and uptake in HASMC", "format": "cell-based, human", "protocol": "as §1, §6"}, "[12]": {"system": "HepG2 cells", "assay": "BODIPY FL LDL binding and uptake in HepG2 cells", "format": "cell-based, human", "settings": "5 mM homocysteine 8 hr", "protocol": "as §1, §6"}, "[13]": {"settings": "HepG2 cells, 5 mM homocysteine, 0-18 h"}}, "note": "Entries after “also recorded” stand apart in the source; their conditions may differ.", "data": [{"compound": "O[C@H](CS)[C@H](O)CS", "note": "(racemic) [DTT, DL-dithiothreitol]", "values": [{"measurement": "expression of cholesterol biosynthetic enzymes (Northern analysis)", "setting": "[1]", "value": "induce the cholesterol biosynthetic pathway in a manner similar to that of homocysteine"}, {"measurement": "steady-state mRNA levels of IPPI", "setting": "[1]; HUVEC", "value": "significantly increased IPPI mRNA levels"}, {"measurement": "steady-state mRNA levels of IPPI (IPP isomerase)", "setting": "[1]; HepG2 cells", "value": "induced the expression of IPP isomerase; also recorded: increase IPPI mRNA levels"}, {"measurement": "steady-state mRNA levels of GRP78/BiP and GADD153", "setting": "[2]", "value": "also induced the steady-state mRNA levels of GRP78/BiP and GADD153"}]}, {"compound": "NC(CS)C(=O)O", "note": "(racemic) [cysteine, DL-cysteine]", "values": [{"measurement": "expression of cholesterol biosynthetic enzymes (Northern analysis)", "setting": "[1]", "value": "no other amino acids, including thiol-containing methionine and cysteine, have significant effects"}, {"measurement": "steady-state mRNA levels of IPPI", "setting": "[1]; HUVEC", "value": "only homocysteine and DTT significantly increased IPPI mRNA levels"}, {"measurement": "steady-state mRNA levels of GRP78/BiP and GADD153", "setting": "[2]", "value": "failed to induce the expression of these ER stress response genes"}, {"measurement": "total cellular cholesterol normalized to protein", "setting": "[3]", "value": "but not cysteine, increased cellular cholesterol"}, {"measurement": "total cellular cholesterol normalized to protein", "setting": "[4]", "value": "but not cysteine, increased cellular cholesterol"}, {"measurement": "overall cell number or viability", "setting": "[5]", "value": "does not effect cell viability"}]}, {"compound": "NC(CCS)C(=O)O", "note": "(racemic) [homocysteine, DL-homocysteine]", "values": [{"measurement": "IPPI mRNA levels", "setting": "[1]; HASMC, 5 mM homocysteine", "value": "significantly increases IPPI mRNA levels"}, {"measurement": "IPPI mRNA levels", "setting": "[1]; HUVEC, 5 mM homocysteine", "value": "significantly increases IPPI mRNA levels"}, {"measurement": "expression of cholesterol biosynthetic pathway genes, clusterin and SREBP", "setting": "[1]; HUVEC, 1-5 mM homocysteine for as little as 2 hours", "value": "enhanced"}, {"measurement": "steady-state mRNA levels of IPPI", "setting": "[1]; HUVEC", "value": "significantly increased IPPI mRNA levels"}, {"measurement": "IPPI mRNA levels", "setting": "[1]; HepG2, 5 mM homocysteine", "value": "significantly increases IPPI mRNA levels"}, {"measurement": "steady-state mRNA levels of SREBP, HMG-CoA reductase and FPP synthase", "setting": "[1]; HepG2 cells, 5 mM homocysteine, 0, 2, 4, 8 or 18 hours", "value": "increased steady-state mRNA levels for all transcripts"}, {"measurement": "steady-state mRNA levels of HMG-CoA reductase, IPP isomerase and FPP synthase", "setting": "[1]; [13]", "value": "increased and peaked between 2 and 4 hr"}, {"measurement": "steady-state mRNA levels of SREBP-1", "setting": "[1]; [13]", "value": "increased and peaked between 2 and 4 h"}, {"measurement": "steady-state mRNA levels of IPPI (IPP isomerase)", "setting": "[1]; HepG2 cells", "value": "induced the expression of IPP isomerase; also recorded: increase IPPI mRNA levels"}, {"measurement": "mRNA levels of acetyl CoA carboxylase, fatty acid synthase and LDL receptor", "setting": "[1]; homocysteine treated HepG2 cells (data not shown)", "value": "also increased"}, {"measurement": "steady-state mRNA levels of GRP78/BiP and GADD153", "setting": "[2]", "value": "increased steady-state mRNA levels of GRP78/BiP and GADD153"}, {"measurement": "GRP78/BiP and GRP94 protein levels", "setting": "[6]", "value": "elevated"}, {"measurement": "levels of active (68 kDa) and precursor (125 kDa) forms of SREBP-1", "setting": "[7]", "value": "increased levels of both active (68 kDa) and precursor (125 kDa) forms of SREBP-1"}, {"measurement": "active and precursor forms of SREBP-2", "setting": "[8]", "value": "also increased"}, {"measurement": "total cellular cholesterol normalized to protein", "setting": "[3]", "value": "promotes cholesterol accumulation"}, {"measurement": "total cellular cholesterol normalized to protein", "setting": "[3]; listed as Homocysteine", "value": "increased cellular cholesterol"}, {"measurement": "total cellular cholesterol normalized to protein", "setting": "[4]", "value": "promotes cholesterol accumulation"}, {"measurement": "total cellular cholesterol normalized to protein", "setting": "[4]; listed as Homocysteine", "value": "increased cellular cholesterol"}, {"measurement": "total cellular cholesterol normalized to protein", "setting": "[9]", "value": "no significant change in the total cholesterol concentration; also recorded: unchanged"}, {"measurement": "LDL or AcLDL binding", "setting": "[10]; 4 hour pre-treatment with 5 mM homocysteine", "value": "no significant effect"}, {"measurement": "LDL and AcLDL binding/uptake", "setting": "[10]; 8 h incubation with 5 mM homocysteine", "value": "significant decrease in LDL and AcLDL binding; also recorded: significant decrease in LDL uptake; also recorded: similarly down-regulated"}, {"measurement": "LDL uptake", "setting": "[11]; 5 mM homocysteine 8 hr", "value": "maintained their ability to endocytose LDL"}, {"measurement": "ability to bind LDL", "setting": "[11]; after 18 h of incubation", "value": "no impairment"}, {"measurement": "LDL binding/uptake", "setting": "[12]", "value": "may further enhance LDL binding; also recorded: enhanced LDL uptake"}, {"measurement": "overall cell number or viability", "setting": "[5]", "value": "no effect on overall cell number or viability; also recorded: does not effect cell viability"}, {"measurement": "EC injury", "setting": "[5]; homocysteine concentrations up to 5 mM", "value": "do not cause EC injury"}]}, {"compound": "CNc1ccc2oc(C[C@H]3O[C@@]4(CC[C@H]3C)O[C@H]([C@H](C)C(=O)c3ccc[nH]3)[C@H](C)C[C@H]4C)nc2c1C(=O)O", "note": "[A23187]", "values": [{"measurement": "expression of cholesterol biosynthetic enzymes (Northern analysis)", "setting": "[1]", "value": "induce the cholesterol biosynthetic pathway in a manner similar to that of homocysteine"}, {"measurement": "steady-state mRNA levels of IPPI (IPP isomerase)", "setting": "[1]; HepG2 cells", "value": "induced the expression of IPP isomerase; also recorded: increase IPPI mRNA levels"}]}, {"compound": "C[C@@H]1C[C@@H]([C@H](O)CC2CC(=O)NC(=O)C2)C(=O)[C@@H](C)C1", "note": "[cycloheximide]", "values": [{"measurement": "effect on induction of cholesterol/triglyceride genes by homocysteine", "setting": "[1]; data not shown", "value": "does not block the induction of these genes by homocysteine"}]}, {"compound": "NCC(=O)O", "note": "[glycine]", "values": [{"measurement": "steady-state mRNA levels of IPPI", "setting": "[1]; HUVEC", "value": "only homocysteine and DTT significantly increased IPPI mRNA levels"}, {"measurement": "steady-state mRNA levels of GRP78/BiP and GADD153", "setting": "[2]", "value": "failed to induce the expression of these ER stress response genes"}]}, {"compound": "N[C@@H](CCO)C(=O)O", "note": "[homoserine]", "values": [{"measurement": "steady-state mRNA levels of IPPI", "setting": "[1]; HUVEC", "value": "only homocysteine and DTT significantly increased IPPI mRNA levels"}, {"measurement": "steady-state mRNA levels of GRP78/BiP and GADD153", "setting": "[2]", "value": "failed to induce the expression of these ER stress response genes"}]}, {"compound": "CSCC[C@H](N)C(=O)O", "note": "[methionine, L-methionine]", "values": [{"measurement": "expression of cholesterol biosynthetic enzymes (Northern analysis)", "setting": "[1]", "value": "no other amino acids, including thiol-containing methionine and cysteine, have significant effects"}, {"measurement": "steady-state mRNA levels of IPPI", "setting": "[1]; HUVEC", "value": "only homocysteine and DTT significantly increased IPPI mRNA levels"}, {"measurement": "steady-state mRNA levels of GRP78/BiP and GADD153", "setting": "[2]", "value": "failed to induce the expression of these ER stress response genes"}]}, {"compound": "OCCS", "note": "[β-mercaptoethanol]", "values": [{"measurement": "steady-state mRNA levels of IPPI (IPP isomerase)", "setting": "[1]; HepG2 cells", "value": "induced the expression of IPP isomerase; also recorded: increase IPPI mRNA levels"}]}, {"compound": "tunicamycin", "values": [{"measurement": "expression of cholesterol biosynthetic enzymes (Northern analysis)", "setting": "[1]", "value": "induce the cholesterol biosynthetic pathway in a manner similar to that of homocysteine"}, {"measurement": "steady-state mRNA levels of IPPI (IPP isomerase)", "setting": "[1]; HepG2 cells", "value": "induced the expression of IPP isomerase; also recorded: increase IPPI mRNA levels"}, {"measurement": "steady-state mRNA levels of GRP78/BiP and GADD153", "setting": "[2]", "value": "also induced the steady-state mRNA levels of GRP78/BiP and GADD153"}]}]}
